# Test system: pancreatic patient-derived tumor xenografts (PDX models)
# Test: In vivo antitumor activity in female BALB/c nude mice bearing patient-derived tumor xenografts (PDXs)
# Conditions: 60 mg/kg, Bid, po, 21 days, 3 days on 4 days off
# Excerpt: In Vivo Antitumor Activity of Compound 1 Hemihydrate in Female BALB/c Nude Mice Bearing Patient-Derived Tumor Xenografts (PDXs)
# Tumor fragments from seed mice inoculated with selected PDX tumors were harvested and used for inoculation into BALB/c nude mice. Each mouse was inoculated subcutaneously at the right flank with one tumor fragment (2-3 mm in diameter). The treatments were started when mean tumor size reached approximately 200-250 mm^3. For each model, 6 tumor bearing mice were randomized into 2 groups. Mice were dosed orally with either vehicle (0.5% w:v methyl cellulose) or Compound 1 hemihydrate Form A crystal (60 mg/kg, Bid, po, 21 days, 3 days on 4 days off).
# The % tumor growth inhibition (TGI) was taken as endpoints to determine when the tumor growth can be delayed or mice can be cured. Tumor sizes were measured twice weekly in two dimensions using a caliper, and the volume is expressed in mm^3 using the formula: V=0.5a×b^2,
# where a and b are the long and short diameters of the tumor, respectively. The % TGI was calculated using the following formula: % TGI=(1−(Ti-T0)/(Vi-V0))*100 […]
compound,measurement,setting,value
"Cc1n[nH]cc1-c1cc2nc([C@@H]3CC4CCN3CC4)[nH]c(=O)c2s1 [Compound 1 hemihydrate, 2-[(2S)-1-azabicyclo[2.2.2]oct-2-yl]-6-(3-methyl-1H-pyrazol-4-yl)thieno[3,2-d]pyrimidin-4(3H)-one]",tumor growth inhibition (% TGI),"22 out of 25 pancreatic PDX models, vs vehicle (0.5% methyl cellulose)",> 60%
same,"sensitivity of KRAS-mutant pancreatic tumors compared to KRAS-wild type ones (correlative study on % TGI, FIG. 1)","pancreatic PDX models, Student's t-test KRAS-mutant vs KRAS-wild",more sensitive
